Seven compounds from US11986532B2 (Arvinas Operations, Inc., priority 2021, dated 2024) can be followed below.

This assay addresses T1, BCL6 (Homo sapiens, UniProt P41182).
T1 construct: endogenous in cells; host or cells: T47D breast cancer epithelial cells
In words: Immunofluorescence protocol for high content imaging of BCL6 (degradation) in T47D cells, 3 days compound treatment. It is filed as cell-based. The conditions noted are these: for DC50: read-out: Mean DC50 (nM)* category; for Dmax: read-out: Mean Dmax (%)** category. The gist of the method: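 Read-out: high-content imaging of anti-BCL6 immunofluorescence (Alexa-488 secondary) with CellMask and Hoechst counterstains, 10×, 4 fields/well. Cells had 3 days of compound exposure at 37° C, 5% CO2, 11-point 3-fold series from a final top of 0.1 or 1 μM.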

[1] abbreviates: T47D cells, 3 days compound treatment.

Each structure is given as a SMILES string. Read-outs that look alike come from different tables or passages of the source. Some results are limits rather than exact numbers.

One may read the DC50 as the concentration giving 50% degradation. As a reminder, the Dmax is the greatest extent of degradation seen.

`CNC(=O)COc1cc2cc(Nc3nc(N4CCC(F)(CN5CCC6(CC5)CCN(c5cccc7c5CN(C5CCC(=O)NC5=O)C7=O)CC6)CC4)ncc3Cl)ccc2n(C(C)C)c1=O` (centres unmarked) [Compound 82, 2-{[6-({5-chloro-2-[4-({9-[2-(2,6-dioxopiperidin-3-yl)-1-oxo-2,3-dihydro-1H-isoindol-4-yl]-3,9-diazaspiro[5.5]undecan-3-yl}methyl)-4-fluoropiperidin-1-yl]pyrimidin-4-yl}amino)-2-oxo-1-(propan-2-yl)-1,2-dihydroquinolin-3-yl]oxy}-N-methylacetamide]: under setting [1], the DC50 was < 10 nM and the Dmax is ≥ 70%.

As to `CNC(=O)COc1cc2cc(Nc3nc(N4CCC(CN5CCC6(CN(c7ccc8c(c7OC)CN(C7CCC(=O)NC7=O)C8=O)C6)C(F)(F)C5)CC4)ncc3Cl)ccc2n(C(C)C)c1=O` (centres unmarked) [Compound 352, 2-{[6-({5-chloro-2-[4-({2-[2-(2,6-dioxopiperidin-3-yl)-4-methoxy-1-oxo-2,3-dihydro-1H-isoindol-5-yl]-5,5-difluoro-2,7-diazaspiro [3.5]nonan-7-yl}methyl)piperidin-1-yl]pyrimidin-4-yl}amino)-2-oxo-1-(propan-2-yl)-1,2-dihydroquinolin-3-yl]oxy}-N-methylacetamide], the DC50 fell in the range of 10 to 50 nM. The Dmax (T47D) is < 50%.

On to `CNC(=O)COc1cc2cc(Nc3nc(N4CCC(O[C@H]5C[C@H](N6CC7(CCN(c8ccc9c(c8)CN(C8CCC(=O)NC8=O)C9=O)CC7)C6)C5)CC4)ncc3Cl)ccc2n(C(C)C)c1=O` (some centres unmarked) [Compound 369, 2-({6-[(5-chloro-2-{4-[(1r,3r)-3-{7-[2-(2,6-dioxopiperidin-3-yl)-1-oxo-2,3-dihydro-1H-isoindol-5-yl]-2,7-diazaspiro[3.5]nonan-2-yl}cyclobutoxy]piperidin-1-yl}pyrimidin-4-yl)amino]-2-oxo-1-(propan-2-yl)-1,2-dihydroquinolin-3-yl}oxy)-N-methylacetamide], for which the DC50 is < 10 nM. Where the note is “T47D”, the Dmax is ≥ 70%.

As to `CNC(=O)COc1cc2cc(Nc3nc(N4CC5C(CN6CCN(c7cccc8c7C(=O)N(C7CCC(=O)NC7=O)C8=O)CC6)C5C4)ncc3Cl)ccc2n(C(C)C)c1=O` (centres unmarked) [Compound 158, 2-{[6-({5-chloro-2-[6-({4-[2-(2,6-dioxopiperidin-3-yl)-1,3-dioxo-2,3-dihydro-1H-isoindol-4-yl]piperazin-1-yl}methyl)-3-azabicyclo [3.1.0]hexan-3-yl]pyrimidin-4-yl}amino)-2-oxo-1-(propan-2-yl)-1,2-dihydroquinolin-3-yl]oxy}-N-methylacetamide], under setting [1], the DC50 lay within 10 to 50 nM and the Dmax was < 50%.

On to `CNC(=O)COc1cc2cc(Nc3cc(N4CCC(CN5CCC6(CN(c7ccc8c(c7F)CN(C7CCC(=O)NC7=O)C8=O)C6)C(F)(F)C5)CC4)ncc3Cl)ccc2n(C(C)C)c1=O` (centres unmarked) [Compound 237, 2-{[6-({5-chloro-2-[4-({2-[2-(2,6-dioxopiperidin-3-yl)-4-fluoro-1-oxo-2,3-dihydro-1H-isoindol-5-yl]-5,5-difluoro-2,7-diazaspiro[3.5]nonan-7-yl}methyl)piperidin-1-yl]pyridin-4-yl}amino)-2-oxo-1-(propan-2-yl)-1,2-dihydroquinolin-3-yl]oxy}-N-methylacetamide], for which the DC50 was < 10 nM. Moreover, where the note is “T47D”, the Dmax is 50 to 70%.

`CNC(=O)COc1cc2cc(Nc3cc(N4CCC(CN5CCC6(CC5)CN(c5ccc7c(c5)CN(C5CCC(=O)NC5=O)C7=O)C6)CC4)ncc3Cl)ccc2n(C(C)C)c1=O` (centres unmarked) [Compound 321, 2-{[6-({5-chloro-2-[4-({2-[2-(2,6-dioxopiperidin-3-yl)-1-oxo-2,3-dihydro-1H-isoindol-5-yl]-2,7-diazaspiro[3.5]nonan-7-yl}methyl)piperidin-1-yl]pyridin-4-yl}amino)-2-oxo-1-(propan-2-yl)-1,2-dihydroquinolin-3-yl]oxy}-N-methylacetamide]: the DC50 is < 10 nM. Also, the Dmax (T47D) was in the range of 50 to 70%.

Take `CNC(=O)COc1cc2cc(Nc3nc(N4CCC(O[C@H]5C[C@H](N6[C@H](C)CN(c7ccc8c(c7)C(=O)N(C7CCC(=O)NC7=O)C8=O)C[C@H]6C)C5)CC4)ncc3Cl)ccc2n(C(C)C)c1=O` (stereo partly drawn) [Compound 249, 2-({6-[(5-chloro-2-{4-[(1r,3r)-3-[(2R,6R)-4-[2-(2,6-dioxopiperidin-3-yl)-1,3-dioxo-2,3-dihydro-1H-isoindol-5-yl]-2,6-dimethylpiperazin-1-yl]cyclobutoxy]piperidin-1-yl}pyrimidin-4-yl)amino]-2-oxo-1-(propan-2-yl)-1,2-dihydroquinolin-3-yl}oxy)-N-methylacetamide]: the DC50 is 10 to 50 nM. The Dmax (T47D) is < 50%.
